In patent US6075006A, “Soluble tachykinin antagonists, the preparation and use thereof” (Centro Interuniversitario di Ricera Sui Peptidi …, priority 1996, dated 2000) one finds Solubility data, which are given here for 4 compounds.

Converted amounts (≈) assume the structure as drawn. Where two headings read alike, the source gives them in different places. Bridge positions count the residues as written; N and C are the ends. Square brackets hold non-standard residues; d marks the D form. Peptide text beside a SMILES is read from it. * marks the point of attachment. βGal = OC[C@H]1O[C@@H](*)[C@H](O)[C@@H](O)[C@H]1O; X1 = OC[C@H]1O[C@@H](N*)[C@H](O)[C@@H](O)[C@H]1O; Dap = NC[C@H](N)C(=O)O

One may read the Solubility as the dissolved amount per volume that the medium holds.

One data set can be described thus: Water solubility. The format is physicochemical. To be noted: table of example 2.
The conditions of data set [1]: water solubility of known insoluble antagonists, stated in the description; cited from earlier work.

`CC(C)C[C@@H]1NC(=O)[C@@H]2CNC(=O)C[C@H](NC(=O)[C@H](CO[C@@H]3O[C@H](CO)[C@H](O)[C@H](O)[C@H]3O)NC1=O)C(=O)N[C@@H](Cc1c[nH]c3ccccc13)C(=O)N[C@@H](Cc1ccccc1)C(=O)N2` [Comparative example 1, cyclo[Ser^1 (β-D-Gal)-Asp^2 -Trp^3 -Phe^4 -Dap^5 -Leu^6]cyclo(2β-5β)] (cyclo(DWF[Dap]LS(βGal)); lactam 1-4) showed a Solubility in the data set “Water solubility” of 2.020 µg/mL (≈ 2.3 µM).
Still for that read-out and setting: as for `CC(C)C[C@@H]1NC(=O)[C@@H]2CNC(=O)C[C@H](NC(=O)[C@H](CC(=O)N[C@@H]3O[C@H](CO)[C@H](O)[C@H](O)[C@H]3O)NC1=O)C(=O)N[C@@H](Cc1c[nH]c3ccccc13)C(=O)N[C@@H](Cc1ccccc1)C(=O)N2` [Comparative example 2, cyclo[Asn^1 (β-D-Gal)-Asp^2 -Trp^3 -Phe^4 -Dap^5 -Leu^6]cyclo(2β-5β)] (cyclo(D(X1)DWF[Dap]L); lactam 2-5), the figure is 1.980 µg/mL (≈ 2.19 µM); as for `CC(C)C[C@@H]1NC(=O)[C@@H]2CNC(=O)C[C@H](NC(=O)[C@H](CS[C@@H]3O[C@H](CO)[C@H](O)[C@H](O)[C@H]3O)NC1=O)C(=O)N[C@@H](Cc1c[nH]c3ccccc13)C(=O)N[C@@H](Cc1ccccc1)C(=O)N2` [Example 1, cyclo[Cys^1 (β-D-Gal)-Asp^2 -Trp^3 -Phe^4 -Dap^5 -Leu^6]cyclo(2β-5β)] (cyclo(C(βGal)DWF[Dap]L); lactam 2-5), 1.800 µg/mL (≈ 2.01 µM).
Regarding `CSCC[C@@H]1NC(=O)[C@H](CC(C)C)NC(=O)[C@@H]2CNC(=O)C[C@H](NC1=O)C(=O)N[C@@H](Cc1c[nH]c3ccccc13)C(=O)N[C@@H](Cc1ccccc1)C(=O)N2` [MEN 10627] (cyclo(DWF[Dap]LM); lactam 1-4), the Solubility (in data set [1]; in “Water solubility”) was 15 µg/mL (≈ 19.7 µM) in each case.
